Laboratory results taken from US20230159510A1, “NOVEL PRMT5 INHIBITORS” (AMGEN INC., priority 2020, published 2023).
Like-named read-outs stand apart in the source and are kept apart here.

Columns and labels:
[1] = test system: HCT116 WT cells; assay: HCT116 proliferation assay, WT cells (CellTiter-Glo, 6 days); format: cell-based; settings: Homo sapiens, HCT-116, 144 h, read-out: Prolif_HCT116-WT IC50
In short: (§1)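 Readout is CellTiter-Glo luminescence after 6 days of drug exposure at 37 °C. Compounds tested as 8–9 point, 3-fold dilution series starting at 1 or 10 µM, versus DMSO only, on cells in RPMI 1640 with 10% FBS.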

[2] = test system: HCT116 MTAP null cells; assay: HCT116 proliferation assay, MTAP null cells (CellTiter-Glo, 6 days); format: cell-based; settings: 144 h, read-out: Protif_ HCT116-MTAP null IC50
In short: as §1

[3] = biological target: PRMT5/MEP50 (Homo sapiens, UniProt O14744); assay: MTase-Glo methyl transferase assay, Method A (Histone H4 peptide, 1 µM MTA, 24 h pre-incubation); format: biochemical; parameters: made in house; settings: read-out: PRMT5 MTase Glo Ki (nM, Meth. A)
Sequence of PRMT5/MEP50 (O14744 whole entry): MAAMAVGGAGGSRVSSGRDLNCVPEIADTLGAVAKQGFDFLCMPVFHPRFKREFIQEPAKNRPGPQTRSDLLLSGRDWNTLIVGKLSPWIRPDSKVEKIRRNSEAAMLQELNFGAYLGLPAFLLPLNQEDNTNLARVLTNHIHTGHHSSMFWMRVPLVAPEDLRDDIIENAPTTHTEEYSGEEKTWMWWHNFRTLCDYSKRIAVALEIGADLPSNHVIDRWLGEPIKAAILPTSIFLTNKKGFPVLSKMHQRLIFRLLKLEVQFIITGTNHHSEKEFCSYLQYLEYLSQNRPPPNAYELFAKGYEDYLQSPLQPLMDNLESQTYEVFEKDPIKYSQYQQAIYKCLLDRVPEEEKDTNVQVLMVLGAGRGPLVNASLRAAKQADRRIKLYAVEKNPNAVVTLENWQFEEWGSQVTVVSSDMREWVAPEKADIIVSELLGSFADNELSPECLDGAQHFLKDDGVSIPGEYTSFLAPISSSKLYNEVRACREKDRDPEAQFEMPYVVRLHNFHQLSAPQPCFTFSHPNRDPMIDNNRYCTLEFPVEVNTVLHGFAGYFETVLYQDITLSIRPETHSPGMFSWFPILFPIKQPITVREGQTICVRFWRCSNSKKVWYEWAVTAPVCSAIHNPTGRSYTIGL
Sequence of PRMT5/MEP50 (Q9BQA1 whole entry partner): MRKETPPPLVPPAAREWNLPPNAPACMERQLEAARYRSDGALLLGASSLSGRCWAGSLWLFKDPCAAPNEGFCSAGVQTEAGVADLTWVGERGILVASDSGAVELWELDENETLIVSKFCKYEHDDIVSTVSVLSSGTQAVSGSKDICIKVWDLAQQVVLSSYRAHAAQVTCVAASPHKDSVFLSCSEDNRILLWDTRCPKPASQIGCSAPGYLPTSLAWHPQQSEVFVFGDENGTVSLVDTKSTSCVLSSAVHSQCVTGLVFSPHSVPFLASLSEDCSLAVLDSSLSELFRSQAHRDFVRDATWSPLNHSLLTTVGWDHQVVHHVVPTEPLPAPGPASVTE
In short: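 Luminescent SAH detection (MTase-Glo) after a 2 h room-temperature methylation of 1 µM biotinylated H4 (1-21) peptide by 10 nM PRMT5/MEP50 with 5 µM SAM, in 50 mM Tris pH 8.0.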

| SMILES | IC50 [1] | IC50 ([2]; HCT116-MTAP null) | Ki [3] | IC50 [2] |
| --- | --- | --- | --- | --- |
| COCCN(Cc1ccc(C(F)(F)F)cn1)C(=O)c1ccc2nc(N)c(C)cc2c1 [Example 370, 2-amino-N-(2-methoxyethyl)-3-methyl-N-((5-(trifluoromethyl)-2-pyridinyl)methyl)-6-quinolinecarboxamide] | 5.62 µM | 194 nM | 0.79 nM |  |
| Cc1cc2cc(C(=O)N(Cc3ccc(C(F)(F)F)cn3)Cc3cccc4[nH]ncc34)ccc2nc1N [Example 371, 2-amino-N-(1H-indazol-4-ylmethyl)-3-methyl-N-((5-(trifluoromethyl)-2-pyridinyl)methyl)-6-quinolinecarboxamide] | 1.39 µM | 69 nM | 0.01 nM |  |
| Cc1cc2cc(C(=O)N(Cc3ccc(C(F)(F)F)cn3)[C@@H](c3ncccn3)C3CC3)cnc2nc1N [Example 372, 7-amino-N-((R)-cyclopropyl(2-pyrimidinyl)methyl)-6-methyl-N-((5-(trifluoromethyl)-2-pyridinyl)methyl)-1,8-naphthyridine-3-carboxamide] | 2.41 µM | 124 nM | 0.33 nM |  |
| Nc1nc2ncc(C(=O)N(Cc3ccc(C(F)(F)F)cn3)[C@@H](c3ncccn3)C3CC3)cc2cc1Br [Example 373, 7-amino-6-bromo-N-((R)-cyclopropyl(2-pyrimidinyl)methyl)-N-((5-(trifluoromethyl)-2-pyridinyl)methyl)-1,8-naphthyridine-3-carboxamide] | 1.37 µM | 159 nM | 0.03 nM |  |
| Cc1cc2cc(C(=O)N(Cc3ccc(C(F)(F)F)cn3)[C@H](C)c3ncccn3)ncc2nc1N [Example 374, 2-amino-3-methyl-N-((1R)-1-(2-pyrimidinyl)ethyl)-N-((5-(trifluoromethyl)-2-pyridinyl)methyl)-1,7-naphthyridine-6-carboxamide] | 8.57 µM | 341 nM | 0.48 nM |  |
| CCOc1ccc(CN(C(=O)c2ccc3nc(N)c(C)cc3c2)[C@H](C)c2ncccn2)nc1 [Example 375, 2-amino-N-((5-ethoxy-2-pyridinyl)methyl)-3-methyl-N-((1R)-1-(2-pyrimidinyl)ethyl)-6-quinolinecarboxamide] | 2.13 µM | 64 nM | 0.87 nM |  |
| Cc1cc2cc(C(=O)N(Cc3ccc(OC4CC4)cn3)[C@H](C)c3ncccn3)ccc2nc1N [Example 376, 2-amino-N-((5-(cyclopropyloxy)-2-pyridinyl)methyl)-3-methyl-N-((1R)-1-(2-pyrimidinyl)ethyl)-6-quinolinecarboxamide] | 1.51 µM | 62 nM | 0.02 nM |  |
| CCOc1ccc(CN(C(=O)c2ccc3nc(N)c(C)cc3c2)[C@H](C)c2ncccn2)nn1 [Example 377, 2-amino-N-((6-ethoxy-3-pyridazinyl)methyl)-3-methyl-N-((1R)-1-(2-pyrimidinyl)ethyl)-6-quinolinecarboxamide] | 2.56 µM | 61 nM | 0.07 nM |  |
| Cc1cc2cc(C(=O)N(Cc3ccc(NCC(F)(F)F)nn3)[C@H](C)c3ncccn3)ccc2nc1N [Example 378, 2-amino-3-methyl-N-((1R)-1-(2-pyrimidinyl)ethyl)-N-((6-((2,2,2-trifluoroethyl)amino)-3-pyridazinyl)methyl)-6-quinolinecarboxamide] | 6.96 µM | 340 nM | 0.04 nM |  |
| C[C@H](c1ncccn1)N(Cc1ccc(C(F)F)cn1)C(=O)c1cnc2nc(N)c(Cl)cc2c1 [Example 379] | > 10 µM | 541 nM | 0.89 nM |  |
| Cc1cc2cc(C(=O)N(Cc3ccc(C(F)F)nn3)[C@H](C)c3ncccn3)ccc2nc1N [Example 380, 2-amino-N-((6-(difluoromethyl)-3-pyridazinyl)methyl)-3-methyl-N-((1R)-1-(2-pyrimidinyl)ethyl)-6-quinolinecarboxamide] | 1.67 µM | 79 nM | 0.27 nM |  |
| C[C@H](c1ncccn1)N(Cc1ccc(C(F)F)cn1)C(=O)c1ccc2nc(N)c(Cl)cc2c1 [Example 381, 2-amino-3-chloro-N-((5-(difluoromethyl)-2-pyridinyl)methyl)-N-((1R)-1-(2-pyrimidinyl)ethyl)-6-quinolinecarboxamide] | 8.97 µM | 194 nM | 0.33 nM |  |
| CCOc1ccc(CN(C(=O)c2cnc3nc(N)c(Br)cc3c2)[C@H](C)c2ncccn2)nn1 [Example 382, 7-amino-6-bromo-N-((6-ethoxy-3-pyridazinyl)methyl)-N-((1R)-1-(2-pyrimidinyl)ethyl)-1,8-naphthyridine-3-carboxamide] | 9.68 µM | 278 nM | 0.16 nM |  |
| Cc1cc2cc(C(=O)N(Cc3ccc(F)cn3)Cc3ccc(C(F)(F)F)cn3)ccc2nc1N [Example 383, 2-amino-N-((5-fluoro-2-pyridinyl)methyl)-3-methyl-N-((5-(trifluoromethyl)-2-pyridinyl)methyl)-6-quinolinecarboxamide] | 5.32 µM | 434 nM | 2.06 nM |  |
| Cc1cc2cc(C(=O)N(Cc3ccc(C(F)(F)F)cn3)Cc3ncc(F)cc3F)ccc2nc1N [Example 384, 2-amino-N-((3,5-difluoro-2-pyridinyl)methyl)-3-methyl-N-((5-(trifluoromethyl)-2-pyridinyl)methyl)-6-quinolinecarboxamide] | 5.1 µM | 177 nM | 0.01 nM |  |
| Cc1cc2cc(C(=O)N(Cc3ccc(C(F)(F)F)cn3)[C@H](C)c3ncccc3F)ccc2nc1N [Example 385, 2-amino-N-((1R)-1-(3-fluoro-2-pyridinyl)ethyl)-3-methyl-N-((5-(trifluoromethyl)-2-pyridinyl)methyl)-6-quinolinecarboxamide] | 1.31 µM |  | 0.08 nM | 55 nM |
| Cc1cc2cc(C(=O)N(Cc3ccc(C(F)(F)F)cn3)[C@@H](C)c3ncccc3F)ccc2nc1N [Example 386, 2-amino-N-((1S)-1-(3-fluoro-2-pyridinyl)ethyl)-3-methyl-N-((5-(trifluoromethyl)-2-pyridinyl)methyl)-6-quinolinecarboxamide] | 3.83 µM |  | 3.46 nM | 241 nM |
| Cc1cc2cc(C(=O)N(Cc3ncccc3F)Cc3ncc(F)cc3F)ccc2nc1N [Example 387, 2-amino-N-((3,5-difluoro-2-pyridinyl)methyl)-N-((3-fluoro-2-pyridinyl)methyl)-3-methyl-6-quinolinecarboxamide] | > 10 µM | 884 nM | 1.67 nM |  |
| C[C@H](c1ncccc1F)N(Cc1ccc(C(F)(F)F)cn1)C(=O)c1cnc2nc(N)c(Br)cc2c1 [Example 388, 7-amino-6-bromo-N-((1R)-1-(3-fluoro-2-pyridinyl)ethyl)-N-((5-(trifluoromethyl)-2-pyridinyl)methyl)-1,8-naphthyridine-3-carboxamide] | 4.88 µM | 137 nM | 0.15 nM |  |
| Cc1cc2cc(C(=O)N(Cc3ccc(C(F)(F)F)cn3)[C@H](C)c3ncccc3F)cnc2nc1N [Example 389, 7-amino-N-((1R)-1-(3-fluoro-2-pyridinyl)ethyl)-6-methyl-N-((5-(trifluoromethyl)-2-pyridinyl)methyl)-1,8-naphthyridine-3-carboxamide] | > 10 µM | 198 nM | 0.37 nM |  |
| Cc1cc2cc(C(=O)N(Cc3ccc(C(F)(F)F)cn3)[C@@H]3CCCc4cccnc43)ccc2nc1N [Example 390, 2-amino-3-methyl-N-((8R)-5,6,7,8-tetrahydro-8-quinolinyl)-N-((5-(trifluoromethyl)-2-pyridinyl)methyl)-6-quinolinecarboxamide] | 0.46 µM | 23 nM | 0.25 nM |  |
| Cc1cc2cc(C(=O)N(Cc3ncc(C(F)(F)F)cc3F)[C@H](C)c3ncccc3F)ccc2nc1N [Example 391, 2-amino-N-((1R)-1-(3-fluoro-2-pyridinyl)ethyl)-N-((3-fluoro-5-(trifluoromethyl)-2-pyridinyl)methyl)-3-methyl-6-quinolinecarboxamide] | 4.8 µM | 165 nM | 0.01 nM |  |
| Cc1cc([C@@H](C)N(Cc2ccc(C(F)(F)F)cn2)C(=O)c2ccc3nc(N)c(C)cc3c2)no1 [Example 392, 2-amino-3-methyl-N-((1R)-1-(5-methyl-1,2-oxazol-3-yl)ethyl)-N-((5-(trifluoromethyl)-2-pyridinyl)methyl)-6-quinolinecarboxamide] | 6.86 µM | 193 nM | 0.5 nM |  |
| Cc1cc2cc(C(=O)N(Cc3ncccc3F)[C@H](C)c3ccc(C(F)(F)F)cn3)ccc2nc1N [Example 393, 2-amino-N-((3-fluoro-2-pyridinyl)methyl)-3-methyl-N-((1R)-1-(5-(trifluoromethyl)-2-pyridinyl)ethyl)-6-quinolinecarboxamide] | 8.21 µM | 342 nM | 0.22 nM |  |
| Cc1cc2cc(C(=O)N(Cc3ccc(Br)cn3)[C@H](C)c3ncccc3Cl)ccc2nc1N [Example 394, 2-amino-N-((5-bromo-2-pyridinyl)methyl)-N-((1R)-1-(3-chloro-2-pyridinyl)ethyl)-3-methyl-6-quinolinecarboxamide] | > 10 µM | 384 nM | 0.12 nM |  |
| Cc1cc2cc(C(=O)N(Cc3ccc(C(F)(F)F)nn3)[C@@H]3CCc4cccnc43)ccc2nc1N [Example 395, 2-amino-N-((7R)-6,7-dihydro-5H-cyclopenta[b]pyridin-7-yl)-3-methyl-N-((6-(trifluoromethyl)-3-pyridazinyl)methyl)-6-quinolinecarboxamide] | 2.37 µM | 82 nM | 0.16 nM |  |
